According to ChEMBL document CHEMBL1127558, “Synthesis and characterization of selective fluorescent ligands for the neurokinin NK2 receptor” (J Med Chem, 1994):
Numbered stars: 1 amine (or outer) side, 2 acyl side, 3 side chain; on linkers, the order of the positions; unused ones are H or OH. Square brackets hold non-standard residues; d marks the D form. Peptide text beside a SMILES is read from it. * marks the point of attachment. X1 = C[C@@H](C(=O)[*:2])N(c1ccc([N+](=O)[O-])c2nonc12)[*:1]; Nle = CCCC[C@H](N)C(=O)O; Bz = O=C(c1ccccc1)*

Target: T1, Substance-K receptor (Homo sapiens, UniProt P21452)
T1 sequence (P21452 whole entry): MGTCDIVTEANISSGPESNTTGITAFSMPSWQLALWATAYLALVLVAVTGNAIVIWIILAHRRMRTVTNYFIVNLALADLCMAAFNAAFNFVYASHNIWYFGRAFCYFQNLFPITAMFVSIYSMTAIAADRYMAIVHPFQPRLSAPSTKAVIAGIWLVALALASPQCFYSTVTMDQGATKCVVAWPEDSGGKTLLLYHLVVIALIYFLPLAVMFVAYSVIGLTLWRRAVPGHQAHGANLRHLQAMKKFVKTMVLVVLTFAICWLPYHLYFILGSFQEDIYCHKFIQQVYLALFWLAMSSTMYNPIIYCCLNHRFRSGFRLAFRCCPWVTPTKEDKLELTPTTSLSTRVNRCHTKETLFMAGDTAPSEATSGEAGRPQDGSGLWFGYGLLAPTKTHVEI
Assay: Binding affinity against human NK2 receptors expressed in CHO cells using [3H]GR-100679 as radioligand
Type: cell-based

Row | SMILES | Ki [nM] | Log Ki (cho)
1 | CCCC[C@H](NC(=O)[C@@H]1CCCN1C(=O)[C@@H]1CCCN1C(=O)[C@H](Cc1ccccc1)NC(=O)[C@H](Cc1c[nH]c2ccccc12)NC(=O)[C@H](C)NC(=O)[C@H](C)Nc1ccc([N+](=O)[O-])c2nonc12)C(N)=O (H-[X1]AWFPP[Nle]-NH2) | 87.1 | 
2 | CCCC[C@H](NC(=O)[C@@H]1CCCN1C(=O)[C@@H]1CCCN1C(=O)[C@H](Cc1ccccc1)NC(=O)[C@H](Cc1c[nH]c2ccccc12)NC(=O)[C@H](C)NC(=O)[C@H](C)NC(=O)c1ccccc1)C(N)=O (Bz-AAWFPP[Nle]-NH2) | 0.155 | 
3 | CCCC[C@H](NC(=O)[C@@H]1CCCN1C(=O)[C@H]1CCCN1C(=O)[C@H](Cc1ccccc1)NC(=O)[C@@H](Cc1c[nH]c2ccccc12)NC(=O)[C@H](C)NC(=O)[C@H](C)/N=C(/S)Nc1ccc2c(c1)C(=O)OC21c2ccc(O)cc2Oc2cc(O)ccc21)C(N)=O |  | -5.99
4 | CCCC[C@H](NC(=O)[C@@H]1CCCN1C(=O)[C@H]1CCCN1C(=O)[C@H](Cc1ccccc1)NC(=O)[C@@H](Cc1c[nH]c2ccccc12)NC(=O)[C@H](C)NC(=O)[C@H](CCCCNC(=S)Nc1ccc2c(c1)C(=O)OC21c2ccc(O)cc2Oc2cc(O)ccc21)NC(=O)c1ccccc1)C(N)=O | 24.5 | 
